In ChEMBL document CHEMBL1614632, “Trend analysis of a database of intravenous pharmacokinetic parameters in humans for 670 drug compounds” (Drug Metab Dispos, 2008):

Legend:
clinical [1] = details: human, in vivo, iv, Vdss
clinical [2] = details: human, in vivo, iv, CL
clinical [3] = details: human, in vivo, iv
clinical [4] = details: human, in vivo, iv, t1/2

Compound | Vd (clinical [1]) [L/kg] | clearance (clinical [2]) [mL/min/kg] | MRT (clinical [3]) [h] | half-life (clinical [4]) [h]
CN1Cc2c(N)cccc2C(c2ccccc2)C1 (stereo not given) [NOMIFENSINE] | 6 | 22 | 4.5 | 6.5
CCOC(=O)[C@]1(c2ccccc2)CCC=C[C@H]1NC [NORTILIDINE] | 2.5 | 9.9 | 4.2 | 4.4
CNCCC=C1c2ccccc2CCc2ccccc21 [NORTRIPTYLINE] | 22 | 10 | 37 | 30
CC1COc2c(N3CCN(C)CC3)c(F)cc3c(=O)c(C(=O)O)cn1c23 (stereo not given) [OFLOXACIN] | 1.6 | 2.5 | 11 | 8.9
O=C(O)c1cc(/N=N/c2ccc(O)c(C(=O)O)c2)ccc1O [OLSALAZINE] | 0.07 | 1.2 | 0.97 | 0.9
COc1ccc2[nH]c([S+]([O-])Cc3ncc(C)c(OC)c3C)nc2c1 (stereo not given) [OMEPRAZOLE] | 0.24 | 8.4 | 0.48 | 0.58
Cc1nccn1CC1CCc2c(c3ccccc3n2C)C1=O (stereo not given) [ONDANSETRON] | 1.8 | 5.8 | 5.2 | 3.4
CCC(CC)O[C@@H]1C=C(C(=O)O)C[C@H](N)[C@H]1NC(C)=O [OSELTAMIVIR CARBOXYLATE] | 0.37 | 4.8 | 1.3 | 1.8
NC(=O)CN1CC(O)CC1=O (stereo not given) [OXIRACETAM] | 0.55 | 1.8 | 4.9 | 7.5
COc1ccc(Cc2nccc3cc(OC)c(OC)cc23)cc1OC [PAPAVERINE] | 0.95 | 11 | 1.4 | 1.8
C[C@H](/C=C/[C@H](C)C(C)(C)O)[C@H]1CC[C@H]2/C(=C/C=C3C[C@@H](O)C[C@H](O)C3)CCC[C@]12C [PARICALCITOL] | 0.41 | 0.89 | 7.7 | 5.3
Nc1nc2c(ncn2CCC(CO)CO)c(=O)[nH]1 [PENCICLOVIR] | 1.1 | 8.4 | 2.4 | 2.1
CC1(C)S[C@@H]2[C@H](NC(=O)COc3ccccc3)C(=O)N2[C@H]1C(=O)O [PENICILLIN V] | 0.41 | 6.8 | 1 | 0.84
CC(=O)CCCCn1c(=O)c2c(ncn2C)n(C)c1=O [PENTOXIFYLLINE] | 1.8 | 39 | 0.77 | 1.2
c1ccc(C2(N3CCCCC3)CCCCC2)cc1 [PHENCYCLIDINE] | 6.9 | 5.1 | 23 | 16
CCC1(c2ccccc2)C(=O)NC(=O)NC1=O [PHENOBARBITAL] | 0.54 | 0.063 | 140 | 99
CC1CCCC(C)N1CCCC(O)(c1ccccc1)c1ccccn1 (stereo not given) [PIRMENOL] | 1.4 | 1.8 | 13 | 8.4
CCCN(CCC)S(=O)(=O)c1ccc(C(=O)O)cc1 [PROBENECID] | 0.13 | 0.25 | 8.7 | 5.9
CN1CCN(CCCN2c3ccccc3Sc3ccc(Cl)cc32)CC1 [PROCHLORPERAZINE] | 22 | 16 | 23 | 9
OC(CCN1CCCC1)(c1ccccc1)C1CCCCC1 (stereo not given) [PROCYCLIDINE] | 0.74 | 0.86 | 14 | 12
CC(C)NCC(O)COc1cccc2ccccc12 (stereo not given) [PROPRANOLOL] | 3.1 | 12 | 4.3 | 3.4
Cc1cc(O)c2c(=O)c3c(O)cc(O)c4c5c(O)cc(O)c6c(=O)c7c(O)cc(CO)c8c1c2c(c34)c(c65)c78 [PSEUDOHYPERICIN] | 0.56 | 0.62 | 15 | 20
CN(C)C(=O)Oc1ccc[n+](C)c1 [PYRIDOSTIGMINE] | 1.1 | 9.6 | 1.8 | 1.5
CCN(CC)CCCC(C)Nc1c2ccc(Cl)cc2nc2ccc(OC)cc12 (stereo not given) [QUINACRINE] | 45 | 5.1 | 150 | 120
COCCCOc1ccnc(C[S+]([O-])c2nc3ccccc3[nH]2)c1C (stereo not given) [RABEPRAZOLE] | 0.22 | 4 | 0.92 | 1

Compound | Vd (clinical [1]) [L/kg] | clearance (clinical [2]) [mL/min/kg] | MRT (clinical [3]) [h] | half-life (clinical [4]) [h]
CCOc1ccccc1OC(c1ccccc1)C1CNCCO1 (stereo not given) [REBOXETINE] | 0.65 | 0.82 | 13 | 10
CCOc1cc(CC(=O)N[C@@H](CC(C)C)c2ccccc2N2CCCCC2)ccc1C(=O)O [REPAGLINIDE] | 0.35 | 7.8 | 0.75 | 0.87
O=C1c2ccccc2S(=O)(=O)N1CCCCNC[C@H]1CCc2ccccc2O1 [REPINOTAN] | 0.21 | 2.2 | 1.6 | 1.2
NC[C@H]1O[C@H](O[C@H]2[C@H](O[C@@H]3O[C@H](CO)[C@@H](O)[C@H]3O)[C@@H](O)[C@H](N)C[C@@H]2N)[C@H](N)[C@@H](O)[C@@H]1O [RIBOSTAMYCIN] | 0.25 | 1.5 | 2.8 | 2.5
CO[C@H]1/C=C/O[C@@]2(C)Oc3c(C)c(O)c4c(c3C2=O)C2=NC3(CCN(CC(C)C)CC3)NC2=C(NC(=O)/C(C)=C\C=C\[C@H](C)[C@H](O)[C@@H](C)[C@@H](O)[C@@H](C)[C@H](OC(C)=O)[C@@H]1C)C4=O [RIFABUTIN] | 9.3 | 2.4 | 65 | 37
CN(C)CCc1c[nH]c2ccc(Cn3cncn3)cc12 [RIZATRIPTAN] | 1.9 | 16 | 1.98 | 2.2
CN(C(=O)c1c(O)c2ccccc2n(C)c1=O)c1ccccc1 [ROQUINIMEX] | 0.21 | 0.082 | 43 | 31
CC(C)c1nc(N(C)S(C)(=O)=O)nc(-c2ccc(F)cc2)c1/C=C/[C@@H](O)C[C@@H](O)CC(=O)O [ROSUVASTATIN] | 1.7 | 11 | 2.6 | 2
CN(CC(N)=O)C(=O)N(CCCl)N=O [SARCNU] | 0.76 | 9 | 1.4 | 1
C#CCN(C)[C@H](C)Cc1ccccc1 [SELEGILINE] | 1.9 | 20 | 1.6 | 1.3
CCN(CC)CCNC(=O)c1ccc(NS(C)(=O)=O)cc1 [SEMATILIDE] | 0.82 | 3.7 | 3.7 | 3.8
N[C@@H]1CN(c2c(F)cc3c(=O)c(C(=O)O)cn([C@@H]4C[C@@H]4F)c3c2Cl)CC12CC2 [SITAFLOXACIN ANHYDROUS] | 1.5 | 3.7 | 6.7 | 6.6
N[C@@H](CC(=O)N1CCn2c(nnc2C(F)(F)F)C1)Cc1cc(F)c(F)cc1F [SITAGLIPTIN] | 2.8 | 6 | 7.78 | 12
C[C@@H]1CN(c2c(F)c(N)c3c(=O)c(C(=O)O)cn(C4CC4)c3c2F)C[C@H](C)N1 [SPARFLOXACIN] | 3.9 | 2.7 | 24 | 20
CN[C@@H]1[C@H](O)[C@H](NC)[C@H]2O[C@@]3(O)C(=O)C[C@@H](C)O[C@H]3O[C@@H]2[C@H]1O [SPECTINOMYCIN] | 0.13 | 0.99 | 2.2 | 1.8
CC(C)[C@@H](CC[C@@H](C)[C@H]1CC[C@H]2[C@@H]3[C@H](O)C[C@H]4C[C@@H](NCCCNCCCCN)CC[C@]4(C)[C@H]3CC[C@]12C)OS(=O)(=O)O [SQUALAMINE] | 0.23 | 1.2 | 3.2 | 9.5
Nc1ccc(S(=O)(=O)Nc2ncccn2)cc1 [SULFADIAZINE] | 0.29 | 0.55 | 8.8 | 7
CC(C(=O)O)c1ccc(C(=O)c2cccs2)cc1 (stereo not given) [SUPROFEN] | 0.04 | 0.76 | 0.88 | 2.1
C=CC[C@@H]1/C=C(\C)C[C@H](C)C[C@H](OC)[C@H]2O[C@@](O)(C(=O)C(=O)N3CCCC[C@H]3C(=O)O[C@H](/C(C)=C/[C@@H]3CC[C@@H](O)[C@H](OC)C3)[C@H](C)[C@@H](O)CC1=O)[C@H](C)C[C@@H]2OC [TACROLIMUS ANHYDROUS] | 1.2 | 0.7 | 27 | 26
CC(C)(C)NCC(O)COc1ccc(NC(=O)NC2CCCCC2)cc1 (stereo not given) [TALINOLOL] | 3.3 | 4.9 | 11 | 11
CCOc1ccccc1OCCN[C@H](C)Cc1ccc(OC)c(S(N)(=O)=O)c1 [TAMSULOSIN] | 0.21 | 0.62 | 5.6 | 6.8
CCCCCNC(=N)N/N=C/c1c[nH]c2ccc(OC)cc12 [TEGASEROD] | 5.3 | 18 | 4.9 | 11
CO[C@H]1C[C@@H]2CC[C@@H](C)[C@@](O)(O2)C(=O)C(=O)N2CCCC[C@H]2C(=O)O[C@H]([C@H](C)C[C@@H]2CC[C@@H](OC(=O)C(C)(CO)CO)[C@H](OC)C2)CC(=O)[C@H](C)/C=C(\C)[C@@H](O)[C@@H](OC)C(=O)[C@H](C)C[C@H](C)/C=C/C=C/C=C/1C [TEMSIROLIMUS] | 3 | 7.7 | 10 | 18
CC(C)(C)NCC(O)c1cc(O)cc(O)c1 (stereo not given) [TERBUTALINE] | 1.5 | 3.4 | 7.4 | 15
CC(CC(c1ccccc1)c1ccccc1)NC(C)(C)C (stereo not given) [TERODILINE] | 5.1 | 1.1 | 81 | 56
